Experimental data published in paper PMC7114135, “Interaction between the Antimalarial Drug Dispiro-Tetraoxanes and Human Serum Albumin: A Combined Study with Spectroscopic Methods and Computational Studies” (ACS Omega, 2020).

Target: T1, human serum albumin (HSA) (Homo sapiens, UniProt P02768)
T1 construct: gene ALB; fatty-acid-free HSA (Sigma-Aldrich A3782)
Assay: intrinsic fluorescence quenching (modified Stern-Volmer, binding constant Kb, […] K), supported by UV-vis, time-resolved fluorescence and CD
Details: read-out: Kb (L mol^-1) (converted)

T1 sequence (P02768 25-609): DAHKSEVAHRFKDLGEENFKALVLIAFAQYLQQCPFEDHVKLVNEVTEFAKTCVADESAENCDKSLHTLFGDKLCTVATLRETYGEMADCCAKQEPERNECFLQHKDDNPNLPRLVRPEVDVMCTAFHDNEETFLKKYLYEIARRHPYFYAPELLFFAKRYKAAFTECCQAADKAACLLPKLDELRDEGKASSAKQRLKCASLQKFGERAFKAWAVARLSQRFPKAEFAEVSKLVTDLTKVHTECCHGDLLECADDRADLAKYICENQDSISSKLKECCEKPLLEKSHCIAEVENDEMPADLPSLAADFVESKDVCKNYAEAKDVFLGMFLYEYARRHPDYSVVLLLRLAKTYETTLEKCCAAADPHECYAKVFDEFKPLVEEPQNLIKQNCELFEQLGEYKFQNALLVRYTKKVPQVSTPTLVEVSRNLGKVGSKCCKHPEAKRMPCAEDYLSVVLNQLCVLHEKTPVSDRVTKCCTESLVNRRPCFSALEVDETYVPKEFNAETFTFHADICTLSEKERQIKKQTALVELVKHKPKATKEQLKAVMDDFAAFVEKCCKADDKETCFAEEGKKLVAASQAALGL

| Kd [µM] | Compound |
| --- | --- |
| 16 | O=S(=O)(CCCCl)CN1CCC2(CC1)OOC1(CCCC1)OO2 [TO1] |
| 93.2 | CCS(=O)(=O)CN1CCC2(CC1)OOC1(CCCCC1)OO2 [TO2] |
